“Also recorded” adds a separate entry of the source. Read-outs that look alike come from different tables or passages of the source.
Key:
[1] = system: peripheral blood mononuclear cells (PMBCs); type: cell-based, human
[2] = system: HLA-A2/DR1 transgenic mice; type: in vivo
[3] = system: transgenic HLA-A2/HLA-DR1 animals; type: in vivo, mice; conditions: Group 1: MTTE-OVA then CD29 60 μg (4.1 nmol); Group 2: UV34 14 μg (4.1 nmol) in IFA; prime-boost-boost; p=0.0286

## LSEAEVRQHREARPALLTSRLRFIPKPDGL [SEQ ID NO: 116]
[1]; GV1001 (n=4) + DC (n=3) vaccinated patients
  Total of positive patients over peptides sharing at least 8 amino acids with the polypeptide: Total = 20
[1]; Vaccination DC (n = 3)
  SUM of T-cell responses to peptides embedded in the polypeptide: 8
[1]; Vaccination GV1001 (n = 4)
  SUM of T-cell responses to peptides embedded in the polypeptide: 12
[1]; Vaccination GV1001 + DC (n = 4 + 3)
  SUM of T-cell responses to peptides embedded in the polypeptide: 20
[2]; 16.4 nmol peptide with standard adjuvant
  Immunogenicity in HLA-A2/DR1 transgenic mice (conclusion): highly immunogenic
[2]; 16.4 nmol peptide, female HLA-A2/DR1 mice (n=4), cut off = cells alone
  Peptides above the threshold (T cell responses against individual peptides): UV36, UV57, UV58, UV59, UV60, UV64 and UV66
[2]; 16.4 nmol, mice M9-M12 GV1001 group, M13-M16 UV34 group
  Peptide recognition by individual vaccinated mice (ELISpot): Mouse M16 displayed marginal immune responses against UV57; also recorded: Mouse M15 responded somewhat more broadly and recognized UV58; also recorded: Cells from this mouse also responded to UV59; also recorded: Peptide UV60 was also recognized; also recorded: They both recognized UV36, UV57, UV58, UV64 and UV66; also recorded: also recognized UV59 and UV60
[3]
  Anti-MTTE antibody titers at the end of the experiment: not able to mount an antibody response to the MTTE sequence

Source: patent publication US20250152688A1 (priority 2021, published 2025)
